Measurements published in patent publication US10533015B1, “Opioid receptor antagonist prodrugs” (Nirsum Laboratories, Inc., priority 2019, dated 2020).
Read-outs that look alike come from different tables or passages of the source.

What was measured:
[1] = Plasma stability assay, rat plasma; type: in vitro ADME; conditions: 10 μM, 37° C.
Method in brief: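 Rat, dog, cynomolgus monkey and human plasma incubated in duplicate; rat sampled at 0, 15, 120, 480 and 1440 min. Dog, monkey and human used 2 μM compound (final), 1% solvent, 37° C., sampled at 0, 10, 30, 60 and 120 min. HPLC-MS gave % parent remaining.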

[2] = not given; remark: listed apart in the source
[3] = Rat pharmacokinetic studies, intramuscular; type: in vivo, male Sprague Dawley Rats; conditions: 0.80 mg/kg, saline
Protocol: The purpose of this study is to determine the pharmacokinetics of test compounds in plasma, following intramuscular administration to male Sprague Dawley Rats (n=3, unless otherwise specified).
The dose formulation of 400 mg base equivalents/ml in sesame oil+1% benzyl alcohol (unless otherwise specified) was administered by intramuscular injection. The dose volume was determined by the animals' body weight determined on the morning of dosing day.
Each collected blood sample was centrifuged for 4 minutes at 4° C. and 10000 rpm for plasma collection. Plasma was collected and transferred into a pre-labeled PP tube in dry ice at each time point and precipitated immediately using ACN at a ratio of 1:4 (plasma:ACN). Centrifuged again (10 minutes, 12000 rpm) and obtain the supernatant. After terminal collection, all supernatant was stored at approximately −80° C. until bioanalysis.
LC-MS/MS methods for the quantitative determination of test compound in biological matrix were developed. […] The sample analysis was performed concurrently with a set of calibration standards and two sets of QC samples using the LC-MS/MS method.
Plasma concentration versus time data was analyzed by non-compartmental approaches using the Phoenix WinNonlin 6.3 software program. Cmax, Tmax, T1/2, AUC(0-t), AUC(0-inf), MRT(0-t), MRT(0-inf) and graphs of plasma concentration versus time profile were prepared.

[4] = Polymorph screening of solid state drug substances; conditions: for Dry method and appearance: after stirring 50 °C 72 hours, dried solid; for XRPD results (Dried): dried solid after 50 °C 72 hours; for Visual observation 50° C. / Visual observation RT: target conc. 100 mg/ml
DOR = target: T1, DOR (Homo sapiens, UniProt P41143); test: Opioid receptor binding assay, DOR ([3H]-DADLE); conditions: MaxDose 10000 nM
T1 construct: expressed in transfected cells
T1 sequence (P41143 whole entry): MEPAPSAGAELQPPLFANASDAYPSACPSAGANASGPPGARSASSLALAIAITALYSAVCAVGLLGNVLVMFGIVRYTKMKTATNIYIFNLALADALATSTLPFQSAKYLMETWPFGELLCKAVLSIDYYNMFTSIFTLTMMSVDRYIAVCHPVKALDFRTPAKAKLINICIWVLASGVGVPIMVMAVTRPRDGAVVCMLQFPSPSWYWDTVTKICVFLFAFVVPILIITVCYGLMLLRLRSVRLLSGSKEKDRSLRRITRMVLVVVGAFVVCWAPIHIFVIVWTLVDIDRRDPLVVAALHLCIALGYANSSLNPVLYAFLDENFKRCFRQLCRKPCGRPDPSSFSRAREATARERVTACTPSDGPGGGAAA
Protocol: Receptor binding assays were performed to assess the ability of compounds to inhibit binding to radiolabeled ligand.
The stable cell lines were established and prepared cell membrane obtained using these cell lines.
3) Assay Procedure 1) Transfer 1 μl of specified concentration compound to assay plate according to the plate map for nonspecific binding. Transfer 1 μl of DMSO to assay plate according to plate map for total binding. 2) Follow the plate map. Dispense 99 μl of membrane stocks into the plate. 3) Add 100 μl of radio ligand. 4) Seal the plates. Incubate at RT for 1 hour. 5) Soak the Unifilter-96 GF/C filter plates with 50 μl of 0.3% PEI per well for at least 0.5 hour at room temperature. 6) When binding assays are completed, filter the reaction mixture through GF/C plates using Perkin Elmer Filtermate Harvester, and then wash each plate for 4 times with cold wash buffer. 7) Dry the filter plates for 1 hour at 50 degrees. 8) After drying, seal the bottom of the filter plate wells using Perkin Elmer Unifilter-96 backing seal tape. Add 50 μl of Perkin Elmer Microscint 20 cocktail. Seal top of filter plates with Perkin Elmer TopSeal-A sealing film. 9) Count ^3H trapped on filter using Perkin Elmer MicroBeta2 Reader second day. 10) Analyze the data with GraphPad Prism 5. Calculate the “Inhibition [% Control]” using the equation: % Inh=(1-Background subtracted Assay value/Background subtracted HC value)*100. Results

[5] = cited from earlier work
[6] = Plasma stability assay, dog plasma; type: in vitro ADME; conditions: 2 μM, 37° C.
Protocol: (§1) Plasma stability determination of the test compounds in rat, dog, cynomolgus monkey and human plasma is performed using HPLC-MS. For rat, incubations are carried out in 96-well polypropylene plates in 5 aliquots of 70 μL each (one for each time point). […] Five time points are analyzed (0, 15, 120, 480 and 1440 min). […] All incubations are performed in duplicates. The samples are analyzed by HPLC-MS. The percentage of parent compound remaining after incubation in plasma is determined.

[7] = Plasma stability assay, monkey plasma; type: in vitro ADME, cynomolgus monkey; conditions: 2 μM, 37° C.
Protocol: as §1

[8] = Plasma stability assay, human plasma; type: in vitro ADME; conditions: 2 μM, 37° C.
Protocol: as §1

[9] = Liver S9 fraction stability, human; type: in vitro ADME; conditions: human liver S9, 1.0 mg/ml S9 protein, 2 μM, 37° C.
Protocol: (§2) Liver S9 fraction stability determination of the test compounds in dog, cynomolgus monkey and human is performed using HPLC-MS. Test compound (2 μM, 0.1% DMSO, 1% Methanol final concentration) was assessed for stability in a 50 μl phosphate buffer containing 1.0 mg/ml S9 protein from each of the three species and 5 mM D-saccharic acid-1, 4-lactone. Samples were incubated at 37° C. for 60 minutes and the % compound remaining was assessed.

[10] = Liver S9 fraction stability, dog; type: in vitro ADME; conditions: dog liver S9, 1.0 mg/ml S9 protein, 2 μM, 37° C.
Protocol: as §2

[11] = Liver S9 fraction stability, monkey; type: in vitro ADME, cynomolgus monkey; conditions: monkey liver S9, 1.0 mg/ml S9 protein, 2 μM, 37° C.
Protocol: as §2

[12] = heating temp. 60 °C, obs. temp. 25 °C
[13] = heating temp. 60 °C, obs. temp. 40 °C
[14] = heating temp. 40 °C, obs. temp. 40 °C

C=C1CC[C@@]2(O)C3Cc4ccc(OC(=O)CCCCCCCCCCCCCCC)c5c4[C@@]2(CCN3CC2CC2)[C@H]1O5 [Compound 56, (4aS,7aS,12bS)-3-(cyclopropylmethyl)-4a-hydroxy-7-methylene-2,3,4,4a,5,6,7,7a-octahydro-1H-4,12-methanobenzofuro[3,2-e]isoquinolin-9-yl palmitate]
Approximate Solubility (mg/mL) in Excipient: Cottonseed oil [12]: <50 mg/mL
Approximate Solubility (mg/mL) in Excipient: Cottonseed oil [13]: 25 to 50 mg/mL
Approximate Solubility (mg/mL) in Excipient: Ethanol [13]: <40.4 mg/mL
Approximate Solubility (mg/mL) in Excipient: Sesame oil [12]: <50 mg/mL
Approximate Solubility (mg/mL) in Excipient: Sesame oil [13]: 25 to 50 mg/mL
% remaining at time point ([1]; 0 min): 100%
% remaining at time point ([1]; 15 min): 73.1%
% remaining at time point ([1]; 120 min): 56.7%
% remaining at time point ([1]; 480 min): 35.8%
% remaining at time point ([1]; 1440 min): 16.8%
melting point [2]: 48.95 °C

C=C1CC[C@@]2(O)C3Cc4ccc(O)c5c4[C@@]2(CCN3CC2CC2)[C@H]1O5.Cl [Nalmefene HCl-IR]
AUC0-inf (ng · h/mL) nalmefene [3]: 66.0 ng·h/mL
Terminal Half-life t1/2 (hour) nalmefene [3]: 0.87 h

C=C1CC[C@@]2(O)C3Cc4ccc(OC(=O)NC(C)(C)C)c5c4[C@@]2(CCN3CC2CC2)[C@H]1O5 [Compound 40, (4aS,7aS,12bS)-3-(cyclopropylmethyl)-4a-hydroxy-7-methylene-2,3,4,4a,5,6,7,7a-octahydro-1H-4,12-methanobenzofuro[3,2-e]isoquinolin-9-yl tert-butylcarbamate]
melting point [2]: 107.6 °C
Dry method and appearance ([4]; Acetone): Evaporation/white powder
XRPD results (Dried) ([4]; Acetone): Amorphous
Visual observation 50° C. ([4]; Acetone): Clear
Visual observation RT ([4]; Acetone): Slurry
Dry method and appearance ([4]; EtOAc): Evaporation/white powder
XRPD results (Dried) ([4]; EtOAc): Pattern A
Visual observation 50° C. ([4]; EtOAc): Clear
Visual observation RT ([4]; EtOAc): Slurry
Dry method and appearance ([4]; Heptane): Centrifugation/white powder
XRPD results (Dried) ([4]; Heptane): Pattern A
Visual observation 50° C. ([4]; Heptane): Slurry
Visual observation RT ([4]; Heptane): Slurry
Dry method and appearance ([4]; Isopropanol): Evaporation/oil
XRPD results (Dried) ([4]; Isopropanol): Amorphous
Visual observation 50° C. ([4]; Isopropanol): Clear
Visual observation RT ([4]; Isopropanol): Slurry
Dry method and appearance ([4]; MTBE): Evaporation/white powder
XRPD results (Dried) ([4]; MTBE): Amorphous
Visual observation 50° C. ([4]; MTBE): Clear
Visual observation RT ([4]; MTBE): Clear

C=C1CC[C@@]2(O)C3Cc4ccc(OC(=O)OCCCCCCCCCCCCCCC)c5c4[C@@]2(CCN3CC2CC2)[C@H]1O5 [Compound 32, (4aS,7aS,12bS)-3-(cyclopropylmethyl)-4a-hydroxy-7-methylene-2,3,4,4a,5,6,7,7a-octahydro-1H-4,12-methanobenzofuro[3,2-e]isoquinolin-9-yl pentadecyl carbonate]
Approximate Solubility (mg/mL) in Excipient: Cottonseed oil [12]: >395.8 mg/mL
Approximate Solubility (mg/mL) in Excipient: Sesame oil [12]: >410 mg/mL
% Inh@MaxDose (DOR): 43.2%

C=C1CC[C@@]2(O)C3Cc4ccc(OCOC(=O)CCCCCCCCCCCCC)c5c4[C@@]2(CCN3CC2CC2)[C@H]1O5 [Compound 45, (((4aS,7aS,12bS)-3-(cyclopropylmethyl)-4a-hydroxy-7-methylene-2,3,4,4a,5,6,7,7a-octahydro-1H-4,12-methanobenzofuro[3,2-e]isoquinolin-9-yl)oxy)methyl tetradecanoate]
Approximate Solubility (mg/mL) in Excipient: Cottonseed oil [12]: >402 mg/mL
Approximate Solubility (mg/mL) in Excipient: Sesame oil [12]: 267 to 288 mg/mL
Equilibrium solubility (mg/mL) Water (Water, heating temp. 40 °C, obs. temp. 40 °C): <0.001 mg/mL
% Inh@MaxDose (DOR): 73.8%

Oc1ccc2c3c1O[C@H]1[C@H](O)CC[C@@]4(O)[C@@H](C2)N(CC2CC2)CC[C@]314 [6-β-naltrexol]
time of peak plasma levels after oral dosing [5]: within one hour
mean elimination half-life ([5]; oral dosing): thirteen

C=C1CC[C@@]2(O)C3Cc4ccc(OC(=O)OCCCCCCCCCCCC)c5c4[C@@]2(CCN3CC2CC2)[C@H]1O5 [Compound 6, (4aS,7aS,12bS)-3-(cyclopropylmethyl)-4a-hydroxy-7-methylene-2,3,4,4a,5,6,7,7a-octahydro-1H-4,12-methanobenzofuro[3,2-e]isoquinolin-9-yl dodecyl carbonate]
% remaining at time point ([6]; 0 min): 100%
% remaining at time point ([6]; 15 min (head)): 89.1%
% remaining at time point ([6]; 120 min (head)): 96.9%
% remaining at time point ([6]; 480 min (head)): 107.2%
% remaining at time point ([6]; 1440 min (head)): 101.2%
Approximate Solubility (mg/mL) in Excipient: Cottonseed oil [12]: >397 mg/mL
Approximate Solubility (mg/mL) in Excipient: Ethanol [14]: 120 to 170 mg/mL
Approximate Solubility (mg/mL) in Excipient: Sesame oil [14]: >402.8 mg/mL
Approximate Solubility (mg/mL) in Excipient: Sesame oil [12]: >386 mg/mL
% remaining at time point ([7]; 0 min): 100%
% remaining at time point ([7]; 15 min (head)): 88.7%
% remaining at time point ([7]; 120 min (head)): 74.3%
% remaining at time point ([7]; 480 min (head)): 68.4%
% remaining at time point ([7]; 1440 min (head)): 70.1%
% remaining at time point ([1]; 0 min): 100%
% remaining at time point ([1]; 15 min): 31.3%
% remaining at time point ([1]; 120 min): 7.6%
% remaining at time point ([1]; 480 min): 4%
% remaining at time point ([1]; 1440 min): 1.6%
% remaining at time point ([8]; 0 min): 100%
% remaining at time point ([8]; 15 min (head)): 97.6%
% remaining at time point ([8]; 120 min (head)): 102%
% remaining at time point ([8]; 480 min (head)): 109.8%
% remaining at time point ([8]; 1440 min (head)): 115.1%
% Inh@MaxDose (DOR): 70.9%
% remaining at 60 minutes [9]: 5.3%
% remaining at 60 minutes [10]: 17.1%
% remaining at 60 minutes [11]: 0%
